How the values were obtained:
HCT116 cells = test: Cell viability assay (MTT); assay type: cell-based, human; conditions: for IC50: determined after 48 h (n = 4)
Protocol: (§1) Human colon adenocarcinoma HCT116 cells were purchased from ATCC (Manassas, Va.) and cultured in Dulbecco's modified Eagle's medium (Invitrogen, Carlsbad, Calif.) supplemented with 10% fetal bovine serum (HyClone, Logan, Utah) at 37° C. humidified air and 5% CO2.
HCT116 cells were seeded at a density of 1×10^4 cells per well in 96-well plates. 24 h later the cells were treated with various concentrations of apratoxins or solvent control. After 48 h of incubation, cell viability was detected using MTT according to the manufacturer's instructions (Promega, Madison, Wis.).

VEGF-A secretion = test: Measurement of VEGF-A production (alphaLISA) in HCT116 culture supernatants; assay type: cell-based, human; conditions: for IC50: determined after 12 h (n = 3)
Protocol: as §1
HCT116 cells (1×10^4 cells per well) were seeded in 96-well plates and one day later treated with various concentrations of apratoxins or solvent control. After 12 h of incubation, culture supernatants were collected for detection of VEGF-A by using an alphaLISA kit (PerkinElmer, Waltham, Mass.) following the manufacturer's instructions. Briefly, acceptor bead and anti-VEGF antibody were incubated first with the supernatants for 60 min, donor beads were added later and incubated for another 30 min and then VEGF-A levels detected using Envision (PerkinElmer).

[1] = Cellular stability in HCT116 cell lysate; assay type: in vitro ADME, human; conditions: HCT116 protein lysate 0.7 mg/mL, up to 24 h, FIG. 2D
Protocol: Aliquots of HCT116 cell lysates were diluted with 25 mM Tris-HCl buffer, pH 8.0, to give a final reaction volume of 100 μL and protein concentration of 0.7 mg/mL. Cell lysate solutions were incubated with 10 μL of apratoxin A, BK, BL, BM, or BN (25 μg/mL) for 0.25 min to 24 h (nine time points). Remaining apratoxin A, BK, BL, BM, or BN were extracted from the reaction solution at the end of the incubation periods with ethyl acetate using the same procedure as described for the plasma stability assay.
Analysis of apratoxin A, S4 (BK), S7 (BL), S8 (BM) and S9 (BN) was done by using HPLC-MS [column, Onyx Monolithic C18 (3.0×100 mm), Phenomenex (Torrance, Calif.); solvent, water (solvent A) acetonitrile (solvent B); flow rate, 0.5 ml/min; detection by electrospray ionization-MS in positive ion mode (MRM scan)]. A stepwise gradient elution was used starting at 60% B and 40% A, then increasing to 80% B at 5 min and maintained at this condition for 5 min. Parameters were optimized before analysis by using direct syringe infusion. The retention times (tR, min; MRM ion pair) of the analytes and internal standard are as follows: harmine (2.2; 213.1→169.9), apratoxin A (4.7; 841.4→445.2), apratoxin S4 (BK) (4.1; 828.5→432.2), apratoxin S7 (BL) (4.05; 814.5→418.2), apratoxin S8 (BM) (5.2; 842.5→446.2), apratoxin S9 (BN) (4.9; 828.5→432.2). Compound-dependent parameters used were as follows: apratoxin A, declustering potential (DP) 51, entrance potential (EP) 12, collision energy (CE) 45, collision cell exit potential (CXP) 6, collision cell entrance potential (CEP) 32; and harmine, DP 56.0, EP 4.5, CE 44.0, CXP 5, CEP 16.0. Source gas parameters used were as follows: curtain gas, 15.0; collision gas low, ionspray voltage 5500; temperature, 600.0; ion source gas 150.0; ion source gas 2 60.0.
Calibration curves for apratoxin A, S4 (BK), S7 (BL), S8 (BM) and S9 (BN) in the presence of mouse serum, HCT116 cell lysates, and aqueous solutions were generated by least-square linear regression analysis of the analyte peak area and internal standard peak area ratio against the nominal concentration of the standard solutions. A linear regression analysis was performed, and the concentration of remaining apratoxins at each time point was determined through interpolation for plasma, cellular, and aqueous stability experiments. The amount of remaining apratoxins with microsome incubation was determined from the peak area ratio of apratoxins at tx (3 min to 3 h) and t0. All calculations were done by using Analyst 1.4.2 (Applied Biosystems) Quantitate Mode.

HCT116 xenograft = test: In vivo efficacy, HCT116 xenograft mouse model
Protocol: 3-5 week old female nude mice (nu/nu) were obtained from Charles River Laboratory (Wilmington, Mass.). 1×10^6 HCT116 cells in a volume of 100 μL of sterile saline were injected subcutaneously on the left rear flank of a nude mouse to establish tumors. Tumor dimensions were measured using calipers every day and tumor volumes were calculated using the formula W^2×L×0.5, where width (W)≤length (L). Tumors with a starting volume bigger than 100 mm^3 were excluded from the analysis. Mice were injected intraperitoneally with the doses of 2 μg/mouse (0.1 mg/kg), 5 μg/mouse (0.25 mg/kg) of apratoxin S8 (BM) or solvent (DMSO) control every day until the tumor size in one dimension reached 15 mm and tumor tissue was harvested on the following day. 50 mg of tumor tissue was sonicated in PhosphoSafe lysis buffer (EMD chemicals, Inc) and used for immunoblot analysis described as the above. All studies were carried out under the protocol approved by the Institutional Animal Care and Use Committee at the University of Florida.

SMILES	IC50 (HCT116 cells) [nM]	IC50 (VEGF-A secretion) [nM]	cellular stability [1]	dose dependence of tumor growth inhibition (HCT116 xenograft; 0.1 and 0.25 mg/kg daily i.p.)	signs of toxicity (weight loss, abnormal behavior) (HCT116 xenograft; 0.1 and 0.25 mg/kg daily i.p., nude mice)	effect on tumor growth (HCT116 xenograft; higher dose 0.25 mg/kg daily i.p., about 2 weeks)	tumor growth inhibition (HCT116 xenograft; lower dose 0.1 mg/kg daily i.p., about 2 weeks)	potency relative to the other apratoxins, cell viability (HCT116 cells)	potency relative to the other apratoxins, VEGF-A secretion (VEGF-A secretion)
CC[C@H](C)[C@H]1C(=O)N2CCC[C@@H]2C(=O)O[C@H](C(C)(C)C)C[C@@H](C)C[C@H](O)C(C)(C)C2=N[C@@H](CCC(=O)N[C@@H](Cc3ccc(OC)cc3)C(=O)N(C)[C@@H](C)C(=O)N1C)CS2 [apratoxin S8 (BM), Apratoxin S8]	1.99	0.47	excellent	clear dose-dependent tumor growth inhibition	did not observe signs of toxicity	strongly retarded the tumor growth	about 50%		
CC[C@H](C)[C@H]1C(=O)N2CCC[C@@H]2C(=O)O[C@H](C(C)(C)C)C[C@@H](C)C[C@H](O)CC2=N[C@@H](CCC(=O)N[C@@H](Cc3ccc(OC)cc3)C(=O)N(C)[C@@H](C)C(=O)N1C)CS2 [apratoxin S7 (BL), Apratoxin S7]	1.25	0.3	excellent						
CC[C@H](C)[C@H]1C(=O)N2CCC[C@@H]2C(=O)O[C@H](C(C)(C)C)C[C@@H](C)C[C@H](O)[C@H](C)C2=N[C@H](CCC(=O)N[C@@H](Cc3ccc(OC)cc3)C(=O)N(C)[C@@H](C)C(=O)N1C)CS2 [apratoxin S9 (BN), Apratoxin S9]	0.69	0.12	excellent					2-3 fold	2-3 fold
